This note sets out measurements from patent publication US10329295B2, “Pyrrolotriazine inhibitors of IRAK4 activity” (MERCK SHARP & DOHME CORP., priority 2015, dated 2019).

Structures can show the parent of a compound that is named as a salt.

For orientation: IC50 means the point on the concentration scale where inhibition reaches its midpoint. Read a high IC50 as a need for much substance.

The target of this assay is GST tagged IRAK4 (Homo sapiens (Human), UniProt Q9NWZ3). Put plainly: IRAK4 Kinase Assay (IMAP fluorescence polarization). Type of assay: biochemical. The note with it: 0.5 nM GST tagged IRAK4, 100 μM ATP, 30 minutes at 25° C. The method, boiled down: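 Reactions contained 0.5 nM GST-IRAK4, 100 nM fluorescent peptide substrate and 100 μM ATP in 10 mM Tris-HCl pH 7.2 with 1 mM MgCl2, and were started with ATP. After 30 minutes at 25° C they were stopped with IMAP reagent. Substrate phosphorylation was read as the change in fluorescence polarization.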
GST tagged IRAK4, sequence (Q9NWZ3 whole entry): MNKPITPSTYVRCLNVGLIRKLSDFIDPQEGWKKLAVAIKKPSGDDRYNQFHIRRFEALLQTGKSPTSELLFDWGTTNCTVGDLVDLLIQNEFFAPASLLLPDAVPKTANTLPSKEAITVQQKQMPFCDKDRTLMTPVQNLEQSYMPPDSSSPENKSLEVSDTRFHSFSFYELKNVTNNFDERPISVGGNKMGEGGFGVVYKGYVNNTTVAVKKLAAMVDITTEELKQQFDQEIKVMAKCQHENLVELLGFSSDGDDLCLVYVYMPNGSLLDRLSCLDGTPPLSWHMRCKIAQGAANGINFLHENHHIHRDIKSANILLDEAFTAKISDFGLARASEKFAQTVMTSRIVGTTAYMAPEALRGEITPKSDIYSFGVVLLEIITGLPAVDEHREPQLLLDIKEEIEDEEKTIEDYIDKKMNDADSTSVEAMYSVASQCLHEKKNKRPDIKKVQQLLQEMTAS
(In general: In fluorescence polarisation assays a small probe gives low polarisation when free and higher when bound to something large.)
Take `O=C(Nc1ccccc1C(F)(F)F)c1ccc2cnc(N3C[C@@H]4CC[C@H]3CN4)nn12` (single isomer, unassigned) [Example 78, 2-[(1S,4S)- or (1R,4R)-2,5-diazabicyclo[2.2.2]oct-2-yl]-N-[2-(trifluoromethyl)phenyl]-pyrrolo[2,1-f][1,2,4]triazine-7-carboxamide trifluoroacetate]: the IC50 is 1450 nM. The value for `Cn1cc(NC(=O)c2ccc3cnc(N[C@@H]4CCCNC4)nn23)c(C#N)n1` [Example 124, N-(3-cyano-1-methyl-1H-pyrazol-4-yl)-2-[(3R)-piperidin-3-ylamino]pyrrolo[2,1-f][1,2,4]triazine-7-carboxamide trifluoroacetate] was 0.8 nM. In turn, `Cn1cc(NC(=O)c2ccc3cnc(N4C[C@@H]5CC[C@H]4CN5)nn23)c(Br)n1` (single isomer, unassigned) [Example 63, N-(3-bromo-1-methyl-1H-pyrazol-4-yl)-2-[(1S,4S)- or (1R,4R)-2,5-diazabicyclo[2.2.2]oct-2-yl]pyrrolo[2,1-f][1,2,4]triazine-7-carboxamide trifluoroacetate] gave an IC50 of 92 nM. As for `Cn1cc(NC(=O)c2ccc3cnc(N[C@@H]4CCCNC4)nn23)c(C(F)F)n1` [Example 16, N-[3-(difluoromethyl)-1-methyl-1H-pyrazol-4-yl]-2-[(3R)-piperidin-3-ylamino]pyrrolo[2,1-f][1,2,4]triazine-7-carboxamide trifluoroacetate], half-maximal inhibition (IC50) was put at 1 nM. The value for `N#Cc1cscc1NC(=O)c1ccc2cnc(N[C@@H]3CCCC(F)(F)[C@@H]3N)nn12` [Example 153, 2-{[(1R,2R)-2-amino-3,3-difluorocyclohexyl]amino}-N-(4-cyanothiophen-3-yl)pyrrolo[2,1-f][1,2,4]triazine-7-carboxamide trifluoroacetate] was 120 nM; that for `N#Cc1sccc1NC(=O)c1ccc2cnc(N[C@@H]3CCCNC3)nn12` [Example 146, N-(2-cyanothiophen-3-yl)-2-[(3R)-piperidin-3-ylamino]pyrrolo[2,1-f][1,2,4]triazine-7-carboxamide trifluoroacetate] was 4 nM; that for `O=C(Nc1ccsc1Br)c1ccc2cnc(N3C[C@H]4CC[C@@H]3CN4)nn12` (single isomer, unassigned) [Example 49, N-(2-bromothiophen-3-yl)-2-[(1S,4S)- or (1R,4R)-2,5-diazabicyclo[2.2.2]oct-2-yl]pyrrolo[2,1-f][1,2,4]triazine-7-carboxamide trifluoroacetate] was 1930 nM. The value for `O=C(Nc1cscc1Cl)c1ccc2cnc(N3C[C@@H]4CC[C@H]3CN4)nn12` (single isomer, unassigned) [Example 107, N-(4-chlorothiophen-3-yl)-2-[(1S,4S)- or (1R,4R)-2,5-diazabicyclo[2.2.2]oct-2-yl]pyrrolo[2,1-f][1,2,4]triazine-7-carboxamide trifluoroacetate] was 368 nM. For the molecule `N[C@@H]1[C@H](Nc2ncc3ccc(C(=O)Nc4cscc4C(F)F)n3n2)CCCC1(F)F` [Example 93, 2-{[(1R,2R)-2-amino-3,3-difluorocyclohexyl]amino}-N-[4-(difluoromethyl)thiophen-3-yl]pyrrolo[2,1-f][1,2,4]triazine-7-carboxamide trifluoroacetate], the IC50 amounted to 298 nM. As for `N[C@H]1CCCC[C@H]1Nc1ncc2ccc(C(=O)Nc3cscc3Br)n2n1` [Example 14, 2-{[(1R,2S)-2-aminocyclohexyl]amino}-N-(4-bromothiophen-3-yl)pyrrolo[2,1-f][1,2,4]triazine-7-carboxamide trifluoroacetate], it took 6 nM to reach half-maximal inhibition (IC50). The value for `Cn1cc(NC(=O)c2ccc3cnc(N4CCNCC5(CC5)C4)nn23)c(C(F)F)n1` [Example 20, 2-(5,8-diazaspiro[2.6]non-5-yl)-N-[3-(difluoromethyl)-1-methyl-1H-pyrazol-4-yl]pyrrolo[2,1-f][1,2,4]triazine-7-carboxamide trifluoroacetate] was 2 nM; that for `CCn1cc(NC(=O)c2ccc3cnc(N[C@@H]4CCCC[C@@H]4N)nn23)cn1` [Example 166, 2-{[(1R,2S)-2-Aminocyclohexyl]amino}-N-(1-ethyl-1H-pyrazol-4-yl)pyrrolo[2,1-f][1,2,4]triazine-7-carboxamide] was 38 nM.

`Cn1cc(NC(=O)c2ccc3cnc(N4C[C@H]5CN[C@H](C5)C4)nn23)c(C(F)F)n1` (single isomer, unassigned) [Example 104, 2-[(1S,5S)- or (1R,5R)-3,6-diazabicyclo[3.2.1]oct-3-yl]-N-[3-(difluoromethyl)-1-methyl-1H-pyrazol-4-yl]pyrrolo[2,1-f][1,2,4]triazine-7-carboxamide]: half-maximal inhibition (IC50) was put at 28 nM.

On to `N[C@H]1CCCC[C@H]1Nc1ncc2ccc(C(=O)Nc3ccccc3Cl)n2n1` [Example 40, 2-{[(1R,2S)-2-aminocyclohexyl]amino}-N-(2-chlorophenyl)pyrrolo[2,1-f][1,2,4]triazine-7-carboxamide trifluoroacetate], for which inhibition was half-maximal at 3 nM (IC50). The value for `Cn1cc(NC(=O)c2ccc3cnc(N4C[C@@H]5CC[C@H]4CN5)nn23)c(C(F)(F)F)n1` (single isomer, unassigned) [Example 170, 2-[(1S,4S)- or (1R,4R)-2,5-diazabicyclo[2.2.2]oct-2-yl]-N-[1-methyl-3-(trifluoromethyl)-1H-pyrazol-4-yl]pyrrolo[2,1-f][1,2,4]triazine-7-carboxamide] was 35 nM; that for `Cn1cc(NC(=O)c2ccc3cnc(N[C@@H]4CCCCNC4)nn23)c(C(F)(F)F)n1` (single isomer, unassigned) [Example 72, 2-[(3S)- or (3R)-azepan-3-ylamino]-N-[1-methyl-3-(trifluoromethyl)-1H-pyrazol-4-yl]pyrrolo[2,1-f][1,2,4]triazine-7-carboxamide trifluoroacetate] was 4 nM. The value for `N[C@H]1CCCC[C@H]1Nc1ncc2ccc(C(=O)Nc3ccsc3C(F)(F)F)n2n1` [Example 88, 2-{[(1R,2S)-2-aminocyclohexyl]amino}-N-[2-(trifluoromethyl)thiophen-3-yl]pyrrolo[2,1-f][1,2,4]triazine-7-carboxamide trifluoroacetate] was 58 nM; that for `O=C(Nc1cscc1C(F)F)c1ccc2cnc(N3CCCNCC3)nn12` [Example 41, 2-(1,4-diazepan-1-yl)-N-[4-(difluoromethyl)thiophen-3-yl]pyrrolo[2,1-f][1,2,4]triazine-7-carboxamide trifluoroacetate] was 88 nM.

Take `Cn1cc(NC(=O)c2ccc3cnc(N[C@@H]4CCCC[C@@H]4N)nn23)c(C(F)(F)F)n1` [Example 2, 2-{[(1R,2S)-2-aminocyclohexyl]amino}-N-[1-methyl-3-(trifluoromethyl)-1H-pyrazol-4-yl]pyrrolo[2,1-f][1,2,4]triazine-7-carboxamide trifluoroacetate]: half-maximal inhibition (IC50) was put at 2 nM. In the case of `O=C(Nc1cscc1C(F)F)c1ccc2cnc(N3C[C@H]4CC[C@@H]3CN4)nn12` (single isomer, unassigned) [Example 81, 2-[(1S,4S)- or (1R,4R)-2,5-diazabicyclo[2.2.2]oct-2-yl]-N-[4-(difluoromethyl)thiophen-3-yl]pyrrolo[2,1-f][1,2,4]triazine-7-carboxamide trifluoroacetate], the IC50 was determined as 63 nM. On to `Cn1cc(NC(=O)c2ccc3cnc(N4C[C@@H]5CN[C@@H](C5)C4)nn23)c(C(F)(F)F)n1` (single isomer, unassigned) [Example 100, 2-[(1S,5S)- or (1R,5R)-3,6-diazabicyclo[3.2.1]oct-3-yl]-N-[1-methyl-3-(trifluoromethyl)-1H-pyrazol-4-yl]pyrrolo[2,1-f][1,2,4]triazine-7-carboxamide], for which the 50% inhibitory concentration (IC50) is 64 nM. With `Cn1cc(NC(=O)c2ccc3cnc(N[C@@H]4CCCC(F)(F)[C@@H]4N)nn23)c(C(F)(F)F)n1` [Example 8, 2-{[(1R,2R)-2-amino-3,3-difluorocyclohexyl]amino}-N-[1-methyl-3-(trifluoromethyl)-1H-pyrazol-4-yl]pyrrolo[2,1-f][1,2,4]triazine-7-carboxamide trifluoroacetate] the figure was 276 nM; with `N[C@@H]1[C@H](Nc2ncc3ccc(C(=O)Nc4cscc4Cl)n3n2)CCCC1(F)F` [Example 126, 2-{[(1R,2R)-2-amino-3,3-difluorocyclohexyl]amino}-N-(4-chlorothiophen-3-yl)pyrrolo[2,1-f][1,2,4]triazine-7-carboxamide trifluoroacetate], 1270 nM.

`N#Cc1ccccc1NC(=O)c1ccc2cnc(N3CCNCC4(CC4)C3)nn12` [Example 76, N-(2-cyanophenyl)-2-(5,8-diazaspiro[2.6]non-5-yl)pyrrolo[2,1-f][1,2,4]triazine-7-carboxamide trifluoroacetate]: the IC50 is 970 nM.

Consider `O=C(Nc1ccsc1Cl)c1ccc2cnc(N3CCCNCC3)nn12` [Example 31, N-(2-chlorothiophen-3-yl)-2-(1,4-diazepan-1-yl)pyrrolo[2,1-f][1,2,4]triazine-7-carboxamide trifluoroacetate], for which the IC50 was 866 nM.

`N#Cc1cscc1NC(=O)c1ccc2cnc(N3CC4CCC3CN4)nn12` (stereo not shown) [Example 36, N-(4-cyanothiophen-3-yl)-2-(2,5-diazabicyclo[2.2.2]oct-2-yl)pyrrolo[2,1-f][1,2,4]triazine-7-carboxamide trifluoroacetate]: the midpoint of inhibition, the IC50, lay at 426 nM. `N[C@H]1CCCC[C@H]1Nc1ncc2ccc(C(=O)Nc3cnn(CCO)c3)n2n1` [Example 167, 2-{[(1R,2S)-2-aminocyclohexyl]amino}-N-[1-(2-hydroxyethyl)-1H-pyrazol-4-yl]pyrrolo[2,1-f][1,2,4]triazine-7-carboxamide trifluoroacetate]: inhibition was half-maximal at 178 nM (IC50). The molecule `N[C@@H]1[C@H](Nc2ncc3ccc(C(=O)Nc4ccsc4Br)n3n2)CCCC1(F)F` [Example 94, 2-{[(1R,2R)-2-amino-3,3-difluorocyclohexyl]amino}-N-(2-bromothiophen-3-yl)pyrrolo[2,1-f][1,2,4]triazine-7-carboxamide trifluoroacetate] showed an IC50 of 4150 nM.
